Patent US7537765B2, “Inhibition of HIV-1 replication by disruption of the processing of the viral capsid-spacer peptide 1 protein” (priority 2003, dated 2009)
Read-outs that look alike come from different tables or passages of the source.

Experiments:
[1] = test system: primary Clade B HIV-1 isolates; assay: Virus inhibition assay, primary HIV-1 isolates in PBMC, p24 endpoint; assay type: cell-based; details: Human immunodeficiency virus 1, PBMC
Experimental: (§1) A robust virus inhibition assay was used to evaluate the anti-viral activity of DSB against primary HIV-1 isolates propagated in PMBC. Briefly, serial dilutions of DSB were made in medium into 96-well tissue culture plates. 25-250 TCID50 of virus and 5×10^5 PHA-stimulated PBMCs were added to each well. On days 1, 3 and 5 post-infection, media was removed from each well and replaced with fresh media containing DSB at the appropriate concentration. On day 7 post-infection, culture supernatant was removed from each well for p24 detection of virus replication and 50% inhibitory concentrations (IC50) were calculated by standard methods.

[2] = test system: drug resistant HIV-1 isolates; assay: Drug resistant HIV-1 isolates in fresh PBMC, p24 endpoint; assay type: cell-based; details: for IC50: Human immunodeficiency virus 1, PBMC
Experimental: as §1, with “concentration.” for “concentration. On day 7 post-infection, culture supernatant was removed from each well for p24 detection of virus replication and 50% inhibitory concentrations (IC50) were calculated by standard methods.”
(§2) The activity of DSB was tested against a panel of HIV-1 isolates resistant to approved drugs. These viruses were obtained from the NIH AIDS Research and Reference Reagent Program. Assays were performed using virus propagated in PBMCs with a p24 endpoint (above), or using cell line targets (MT-2 cells) and a cell killing endpoint. The MT-2 assay format was as follows. Serial dilutions of DSB, or each approved drug, were prepared in 96 well plates. To each sample well was added media containing MT-2 cells at 3×10^5 cells/mL and virus inoculum at a concentration necessary to result in 80% killing of the cell targets at 5 days post-infection (PI). On day 5 post-infection, virus-induced cell killing was determined by the XTT method and the inhibitory activity of the compound was determined.

[3] = test system: NNRTI-resistant HIV-1 isolates; assay: NNRTI-resistant HIV-1 isolates in MT-2 cells, cell viability (XTT) endpoint; assay type: cell-based; details: for IC50: X4, MT-2 cells
Experimental: as §2

[4] = test system: HIV-1 infected MAGI cells; assay type: cell-based
Description: To distinguish the inhibitory activity of DSB against early and late replication targets, a multinuclear activation of a galactosidase indicator (MAGI) assay was used. In this assay, the targets are HeLa cells stably expressing CD4, CXCR4, CCR5 and a reporter construct consisting of the—galactosidase gene (modified to localize to the nucleus) driven by a truncated HIV-1 LTR. Infection of these cells results in expression of Tat that drives activation of the β-galactosidase reporter gene. Expression of β-galactosidase in infected cells is detected using the chromogenic substrate X-gal.

[5] = test system: HIV-1 replication in H9 lymphocyte cells; details: cited from earlier work
[6] = 168 h, isolate 92HT599, co-receptor X4, PBMC, p24 day 7, read-out: IC50
[7] = 168 h, isolate 92US723, co-receptor R5/X4, PBMC, p24 day 7, read-out: IC50
[8] = 168 h, isolate 3401N*, co-receptor R5/X4, PBMC, p24 day 7, read-out: IC50
[9] = 168 h, isolate 19101N*, co-receptor R5, PBMC, p24 day 7, read-out: IC50
[10] = 168 h, isolate 22101N*, co-receptor R5/X4, PBMC, p24 day 7, read-out: IC50
[11] = 168 h, isolate BZ167, co-receptor X4, PBMC, p24 day 7, read-out: IC50
[12] = 168 h, isolate US1, co-receptor R5, PBMC, p24 day 7, read-out: IC50
[13] = mean over the panel of primary isolates, read-out: IC50, Mean
[14] = isolate 1, NRTI-resistant, K70R T215Y/F, R5/X4
[15] = isolate 2, NRTI-resistant, K70R T215Y/F, R5/X4
[16] = isolate 5, Protease-resistant, V82A, X4
[17] = isolate 6, Protease-resistant, I84V, X4
[18] = isolate 7, Protease-resistant, L10R/M46I/L63P/V82T/I84V, X4
[19] = Human immunodeficiency virus 1, MT2, isolate 3, NNRTI-resistant, Y181C
[20] = Human immunodeficiency virus 1, MT2, isolate 4, NNRTI-resistant, K103N Y181C
[21] = H9 lymphocyte cells, read-out: EC50, inhibitory activity against HIV-1 replication

Structure (SMILES)	IC50 [1, 6]	IC50 [1, 7]	IC50 [1, 8]	IC50 [1, 9]	IC50 [1, 10]	IC50 [1, 11]	IC50 [1, 12]	IC50 [1, 13]	IC50 [2, 14]	IC50 [2, 15]	IC50 [2, 16]	IC50 [2, 17]	IC50 [2, 18]	IC50 [3, 19]	IC50 [3, 20]	% Decrease (β-galactosidase expression) ([4]; HIV-1 infected MAGI cells)	EC50 [5, 21]	other results
Cc1cn([C@H]2C[C@H](N=[N+]=[N-])[C@@H](CO)O2)c(=O)[nH]c1=O [AZT, zidovudine]	5.8 nM	1.2 nM	17.5 nM	2.4 nM	0.9 nM	2.2 nM	0.9 nM	4.4 nM	86.4 nM	63.4 nM	13.1 nM	14.4 nM	3.5 nM	5.1 nM	2 nM	82%		Fold Resistance ([2]; isolate 1, NRTI-resistant): 54 X; Fold Resistance ([2]; isolate 2, NRTI-resistant): 40 X
C=C(C)[C@@H]1CC[C@]2(C(=O)O)CC[C@]3(C)[C@H](CC[C@@H]4[C@@]5(C)CC[C@H](O)C(C)(C)[C@@H]5CC[C@]43C)[C@@H]12 [Betulinic acid]																	1400 nM	
CC(C)(C)NC(=O)[C@@H]1CN(Cc2cccnc2)CCN1C[C@@H](O)C[C@@H](Cc1ccccc1)C(=O)N[C@H]1c2ccccc2C[C@H]1O [Indinavir, indinavir]									9.8 nM	6.1 nM	39.7 nM	32.7 nM	72.5 nM	2.5 nM	4.5 nM			% Decrease (β-galactosidase expression) [4]: 10%
Cc1ccnc2c1NC(=O)c1cccnc1N2C1CC1 [Nevirapine, nevirapine]	25.3 nM	26.8 nM	32.1 nM	59.4 nM	4.9 nM	31.2 nM	22.1 nM	28.8 nM						> 3800 nM	2630 nM	85%		Fold Resistance ([3]; isolate 3, NNRTI-resistant): (>177X); Fold Resistance ([3]; isolate 4, NNRTI-resistant): (122X)
CC(C)[C@@H]1CC[C@]2(C(=O)O)CC[C@]3(C)C(CCC4[C@@]5(C)CC[C@H](O)C(C)(C)C5CC[C@]43C)C12 (stereo partly drawn) [dihydrobetulinic acid]																		EC50 ([5]; unit inferred, read-out: EC50, anti-HIV activity): 900 nM
CC(=O)[C@@H]1CC[C@]2(C(=O)O)CC[C@]3(C)[C@H](CC[C@@H]4[C@@]5(C)CC[C@H](O)C(C)(C)[C@@H]5CC[C@]43C)[C@@H]12 [platanic acid]																	6500 nM	
